Measurements published in patent publication US9840510B1, “Pyrazolo[1,5-a]pyrimidinyl carboxamide compounds and their use in the treatment of medical disorders” (Lysosomal Therapeutics Inc., priority 2016, dated 2017).
Values after ≈ are worked out from the molar mass of the structure shown.

Assay: Compound solubility in water
Format: physicochemical

SMILES | solubility [µg/mL] | Compound Solubility in Water [µg/mL]
CCCCO[C@H]1CC[C@H](NC(=O)c2cnn3c(C)cc(-c4cncc(Cl)c4)nc23)CC1 [III-293] | 0.3 (≈ 0.679 µM) | 
Cc1cc(-c2ccc3ocnc3c2)nc2c(C(=O)NC(C3CC3)C(F)(F)F)cnn12 (stereo not shown) [III-83] | 0.3 (≈ 0.722 µM) | 
Cc1cc(-c2ccc3ocnc3c2)nc2c(C(=O)N[C@@H](C)C(F)(F)F)cnn12 [III-168] | 0.3 (≈ 0.771 µM) | 
Cc1cc(-c2cccc(Oc3ncccn3)c2)nc2c(C(=O)NC(C3CC3)C(F)(F)F)cnn12 (stereo not shown) [III-103] | 0.8 (≈ 1.71 µM) | 
Cc1cc(C(F)(F)F)nc2c(C(=O)NC(C)(C)C3CC3)cnn12 [III-68] | 11.9 (≈ 36.5 µM) | 
Cc1cc(-c2cccnc2)nc2c(C(=O)N[C@H](C)c3ccc(Cl)cc3)cnn12 [III-37] | 2.1 (≈ 5.36 µM) | 
Cc1cc(-c2ccc3ocnc3c2)nc2c(C(=O)N[C@@H](C3CC3)C(F)(F)F)cnn12 [III-110] | 0.4 (≈ 0.963 µM) | 
Cc1cc(-c2cccc(Cl)c2)nc2c(C(=O)N[C@@H](C)C3CC3)cnn12 [III-65] | 0.9 (≈ 2.54 µM) | 
Cc1cc(-c2cncc(Cl)c2)nc2c(C(=O)N[C@@H](C)C(F)(F)F)cnn12 [III-202] | 2.5 (≈ 6.51 µM) | 
C#CC(NC(=O)c1cnn2c(C)cc(-c3cccc(OC)c3)nc12)C(F)(F)F (stereo not shown) [III-96] | 2 (≈ 5.15 µM) | 
Cc1cc(-c2ccnnc2)nc2c(C(=O)NC(C3CC3)C(F)(F)F)cnn12 (stereo not shown) [III-325] | 14.6 (≈ 38.8 µM) | 
Cc1nc(-c2cc(C)n3ncc(C(=O)N[C@H](C4CC4)C(F)(F)F)c3n2)oc1C [III-331] | 1 (≈ 2.54 µM) | 
Cc1cc(N2CCN(C(C)C)C2=O)nc2c(C(=O)NC(C)(C)C3CC3)cnn12 [III-230] | 2.6 (≈ 6.76 µM) | 
Cc1cc(-c2cc(F)ccc2C#N)nc2c(C(=O)N[C@H](C)C(F)(F)F)cnn12 [III-349] | 0.1 (≈ 0.256 µM) | 
CCc1cc(-c2ccccn2)nc2c(C(=O)NC(C)C(F)(F)F)cnn12 (stereo not shown) [III-52] | 2.4 (≈ 6.61 µM) | 
Cc1cc(-c2ccc(C(F)(F)F)nc2)nc2c(C(=O)NC(C)C(F)(F)F)cnn12 (stereo not shown) [III-288] | 1.4 (≈ 3.35 µM) | 
Cc1cc(-c2cccc3ncoc23)nc2c(C(=O)NC(C3CC3)C(F)(F)F)cnn12 (stereo not shown) [III-104] | 0.02 (≈ 0.0481 µM) | 
Cc1cc(-c2sccc2C#N)nc2c(C(=O)N[C@H](C)C3CC3)cnn12 [III-302] | 0.5 (≈ 1.42 µM) | 
Cc1cc(N2CCN(C(C)C)C2=O)nc2c(C(=O)NC(C3CC3)C(F)(F)F)cnn12 (stereo not shown) [III-225] | 19.3 (≈ 45.5 µM) | 
Cc1cc(-c2ccc(F)cc2)nc2c(C(=O)N[C@@H](C)C3CC3)c(Cl)nn12 [III-32] | 0.1 (≈ 0.268 µM) | 
Cc1cc(-c2ccccn2)nc2c(C(=O)NC(C)(C)C3CC3)cnn12 [III-16] | 1.1 (≈ 3.28 µM) | 
Cc1cc(-c2cccc3nc[nH]c23)nc2c(C(=O)NC(C3CC3)C(F)(F)F)cnn12 (stereo not shown) [III-308] | 4.6 (≈ 11.1 µM) | 

SMILES | solubility [µg/mL] | Compound Solubility in Water [µg/mL]
Cc1cc(C)n2ncc(C(=O)NC(C3CC3)C(F)(F)F)c2n1 (stereo not shown) [III-9] | 18 (≈ 57.6 µM) | 
COc1cccc(-c2cc(C)n3ncc(C(=O)N[C@@H](C)C4CC4)c3n2)c1 [III-57] | 2.7 (≈ 7.7 µM) | 
Cc1cc(-c2ccc(F)cc2)nc2c(C(=O)NC(C)C(F)(F)F)cnn12 (stereo not shown) [III-164] | 1.1 (≈ 3 µM) | 
Cc1cc(-c2cccnc2F)nc2c(C(=O)NC(C3CC3)C(F)(F)F)cnn12 (stereo not shown) [III-113] |  | 1.0
Cc1cc(-c2ccc(F)cc2)n2ncc(C(=O)N[C@@H](C)C3CC3)c2n1 [III-8] | 0.5 (≈ 1.48 µM) | 
Cc1cc(N2CC(C)(C)NC2=O)nc2c(C(=O)NC(C3CC3)C(F)(F)F)cnn12 (stereo not shown) [III-319] | 1.3 (≈ 3.17 µM) | 
Cc1cc(N2CCC(F)(F)C2)nc2c(C(=O)NC(C)C(F)(F)F)cnn12 (stereo not shown) [III-180] | 4.8 (≈ 12.7 µM) | 
CCc1cc(N2CCN(C(C)C)C2=O)nc2c(C(=O)NC(C)C(F)(F)F)cnn12 (stereo not shown) [III-226] | 5.9 (≈ 14.3 µM) | 
Cc1ccc(-c2cc(C)n3ncc(C(=O)NC(C4CC4)C(F)(F)F)c3n2)cn1 (stereo not shown) [III-278] | 0.5 (≈ 1.28 µM) | 
COCOc1cccc(-c2cc(C)n3ncc(C(=O)N[C@@H](C4CC4)C(F)(F)F)c3n2)n1 [III-384] | 0.1 (≈ 0.23 µM) | 
Cc1cc(-c2cccc3ncoc23)nc2c(C(=O)NC(C)(C)C3CC3)cnn12 [III-223] | 0.2 (≈ 0.533 µM) | 
Cc1cc(-c2nccs2)nc2c(C(=O)NC(C3CC3)C(F)(F)F)cnn12 (stereo not shown) [III-209] | 1.2 (≈ 3.15 µM) | 
COc1ccc(-c2cc(C)n3ncc(C(=O)NC(C4CC4)C(F)(F)F)c3n2)cn1 (stereo not shown) [III-268] | 1.2 (≈ 2.96 µM) | 
Cc1cc(-c2cncc(Cl)c2)nc2c(C(=O)NC(C)(C)C3CC3)cnn12 [III-292] | 0.3 (≈ 0.811 µM) | 
CO[C@H]1CC[C@@H]([C@@H](C)NC(=O)c2cnn3c(C)cc(C)nc23)CC1 [III-404] | 15.1 (≈ 45.7 µM) | 
Cc1cc(-c2cccc(Cl)c2)nc2c(C(=O)NC(C)(C)C(F)(F)F)cnn12 [III-406] | 0.8 (≈ 2.02 µM) | 
Cc1cc(-c2sccc2C#N)nc2c(C(=O)NC(C)C(F)(F)F)cnn12 (stereo not shown) [III-300] | 1.4 (≈ 3.69 µM) | 
Cc1cc(-c2cccc(Cl)n2)nc2c(C(=O)N[C@@H](C)C(F)(F)F)cnn12 [III-236] | 5.9 (≈ 15.4 µM) | 
Cc1cc(-c2ncccc2Cl)nc2c(C(=O)NC(C3CC3)C(F)(F)F)cnn12 (stereo not shown) [III-206] | 2.1 (≈ 5.12 µM) | 
CCC(NC(=O)c1cnn2c(C)cc(-c3cccnc3)nc12)C(F)(F)F (stereo not shown) [III-42] | 15.1 (≈ 41.6 µM) | 
Cc1cc(-c2ccccn2)nc2c(C(=O)NC(C)(C)C(F)(F)F)cnn12 [III-408] | 0.4 (≈ 1.1 µM) | 
